Reference: patent US5252580A, “Indole derivatives and anti-ulcer compositions thereof” (priority 1991, dated 1993)

How the values were obtained:
H^+ /K^+ ATPase = target: T1, H^+ /K^+ ATPase (Sus scrofa, UniProt P19156); experiment: H^+ /K^+ ATPase Inhibitory Activity Assay; format: biochemical; conditions: pig stomach enzyme, 37° C., pH 6.2; for inhibition at 10 µg/mL: 10 μg/ml
T1 construct: prepared from the stomach of pig; from tissue; host or cells: pig stomach
Protocol: H^+ /K^+ ATPase Inhibitory Activity Assay
The inhibitory activity was determined in the following manner using H^+ /K^+ ATPase prepared from the stomach of pig.
H^+ /K^+ ATPase dilute solution (100 μl, 50 μg as protein) was added to PIPES-tris (pH 6.2) buffer solution (440 μl) containing 4 mM magnesium chloride and 20 mM potassium chloride. Further, 0.1% ethanol solution of nigericin (5 μl) was added. To the solution was added dimethyl sulfoxide (5 μl) and the mixture was incubated at 37° C. for 30 minutes. Then 10 mM PIPES-tris buffer solution (450 μl) containing 4 mM ATP disodium was added to initiate the reaction. 30 minutes later, 50% trichloroacetic acid (1 μl) was added to cease the reaction. The amount of phosphorus released in this reaction was determined by a color development determination at 800 nm according to D. Lebel, G. Poirier et al. method (Anal. Biochem. 85, 86-89, 1978), at which the reading of the absorbance is taken as C1. On the other hand, a similar determination was carried out in the absence of potassium chloride, at which the reading of the absorbance is taken as C2. The inhibitory activity was determined by a similar procedure as in the above reaction, but adding 5 μl of a dimethyl sulfoxide solution containing 1 to 20 mg/ml of the inhibiting substance (test compound), instead of dimethyl sulfoxide. In that case, the readings of the absorbance in the presence and absence of potassium chloride are taken as T1 and T2, respectively.
% Inhibition (I) of the inhibiting substance (test compound) is calculated by the following equation.

[1] = background statement; cited from earlier work

T1 sequence (P19156 2-1034 limits assumed): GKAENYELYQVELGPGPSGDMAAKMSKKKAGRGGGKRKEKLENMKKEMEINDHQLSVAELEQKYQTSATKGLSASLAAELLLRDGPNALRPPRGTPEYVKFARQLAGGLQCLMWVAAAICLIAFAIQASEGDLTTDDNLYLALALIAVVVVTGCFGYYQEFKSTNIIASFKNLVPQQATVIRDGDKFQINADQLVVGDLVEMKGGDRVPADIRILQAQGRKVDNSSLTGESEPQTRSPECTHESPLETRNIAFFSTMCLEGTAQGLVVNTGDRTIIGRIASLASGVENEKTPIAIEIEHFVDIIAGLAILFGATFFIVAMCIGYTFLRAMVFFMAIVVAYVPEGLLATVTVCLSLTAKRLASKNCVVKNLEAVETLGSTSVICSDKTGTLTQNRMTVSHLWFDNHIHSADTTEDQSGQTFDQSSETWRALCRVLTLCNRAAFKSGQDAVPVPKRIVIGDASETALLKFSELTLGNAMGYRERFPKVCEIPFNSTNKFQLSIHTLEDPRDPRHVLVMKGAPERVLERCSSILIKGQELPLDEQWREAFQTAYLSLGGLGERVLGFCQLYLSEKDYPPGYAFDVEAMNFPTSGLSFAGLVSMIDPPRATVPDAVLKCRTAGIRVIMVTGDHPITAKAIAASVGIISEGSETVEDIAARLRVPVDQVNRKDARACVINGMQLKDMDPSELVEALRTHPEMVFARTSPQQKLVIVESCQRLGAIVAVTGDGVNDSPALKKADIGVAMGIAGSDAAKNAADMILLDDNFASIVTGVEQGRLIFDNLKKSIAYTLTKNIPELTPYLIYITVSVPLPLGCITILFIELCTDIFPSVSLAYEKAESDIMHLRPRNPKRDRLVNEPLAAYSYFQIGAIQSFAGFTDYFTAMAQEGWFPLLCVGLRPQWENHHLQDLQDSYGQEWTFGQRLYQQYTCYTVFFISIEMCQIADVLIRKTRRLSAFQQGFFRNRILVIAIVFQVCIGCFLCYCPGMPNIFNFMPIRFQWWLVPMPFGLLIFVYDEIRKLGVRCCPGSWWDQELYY
T1 sequence (P18434 whole entry partner): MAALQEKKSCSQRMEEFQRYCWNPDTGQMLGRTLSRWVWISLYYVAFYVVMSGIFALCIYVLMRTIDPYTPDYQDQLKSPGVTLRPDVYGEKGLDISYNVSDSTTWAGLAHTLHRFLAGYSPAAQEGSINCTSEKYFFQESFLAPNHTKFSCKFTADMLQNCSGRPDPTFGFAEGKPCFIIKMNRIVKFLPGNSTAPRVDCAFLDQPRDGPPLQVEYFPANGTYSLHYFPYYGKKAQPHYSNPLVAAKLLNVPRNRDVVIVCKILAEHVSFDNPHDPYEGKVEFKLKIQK

| Structure (SMILES) | inhibition at 10 µg/mL (H^+ /K^+ ATPase) | also measured |
| --- | --- | --- |
| CCN1CCC2c3cc(C(O)c4c(CCc5ccccn5)c5ccccc5n4S(=O)(=O)c4ccc(C)cc4)ccc3N(CC)C2C1 (stereo not shown) [Example 40] | 24.4% | – |
| CCN1CCC2c3cc(C4Cc5ccccc5CN(C(=O)OCc5ccccc5)CCc5c4[nH]c4ccccc54)ccc3N(CC)C2C1 (stereo not shown) [Example 10, 6-(13-Benzyloxycarbonyl-6,7,12,13,14,15-hexahydrobenzo[h]azecino[5,4-b]indole-6-yl)-2,9-diethyl-1,2,3,4,4a,9a-hexahydro-pyrido[3,4-b]indole] | – | inhibition at 5 µg/mL (H^+ /K^+ ATPase; 5 μg/ml): 98.4% |
| CCN1CCC2c3cc(C4CCCN(C(=O)OCc5ccccc5)CCc5c4[nH]c4ccccc54)ccc3N(CC)C2C1 (stereo not shown) [Example 11, 6-(3-Benzyloxycarbonyl-1,2,4,5,6,7-hexahydro-3H-azonino[5,4-b]indole-7-yl)-2,9-diethyl-1,2,3,4,4a,9a-hexahydropyrido[3,4-b]indole] | 97.5% | – |
| CCOC(=O)N1CCCCC(c2ccc3c(c2)C2CCN(CC)CC2N3CC)c2[nH]c3ccccc3c2CC1 (stereo not shown) [Example 4, 6-(3-Ethoxycarbonyl-1,2,3,4,5,6,7,8-octahydro-azecino[5,4-b]indole-8-yl)-2,9-diethyl-1,2,3,4,4a,9a-hexahydropyrido[3,4-b]indole] | – | inhibition at 20 µg/mL (H^+ /K^+ ATPase; 20 μg/ml): 84% |
| CCN1CCC2c3cc(C(O)c4c(CCOCc5ccccc5)c5ccccc5n4Cc4ccccc4)ccc3N(CC)C2C1 (stereo not shown) [Example 39, 2,9-Diethyl-6-(3-(2-benzyloxyethyl)-1-benzyl-indole-2-yl)hydroxymethyl-1,2,3,4,4a,9a-hexahydro-pyrido[3,4-b]indole] | 78.8% | – |
| COc1ccc2[nH]c([S+]([O-])Cc3ncc(C)c(OC)c3C)nc2c1 (stereo not shown) [Omeprazole] | – | occurrence of side effects [1]: occurrence of carcinoid |

Now from value to compound, other results behind:

| inhibition at 10 µg/mL (H^+ /K^+ ATPase) | Structure (SMILES) | also measured |
| --- | --- | --- |
| 65.7% | CCN1CCC2c3cc(C(OCc4ccccc4)c4c(CCN(Cc5ccccc5)Cc5ccccc5)c5ccccc5n4C)ccc3N(CC)C2C1 (stereo not shown) [Example 45, 6-(Benzyloxy-(3-(2-(N,N-dibenzylamino)ethyl)-1-methylindole-2-yl)-methyl)-2,9-diethyl-1,2,3,4,4a,9a-hexahydropyrido[3,4-b]indole] | – |
| 92.5% | CCN1CCC2c3cc(C(C)c4[nH]c5ccccc5c4CCN(Cc4ccccc4)C(=O)OCc4ccccc4)ccc3N(CC)C2C1 (stereo not shown) [Example 19, 6-(1-(3-(2-Benzyl(benzyloxycarbonyl)aminoethyl)-indole-2-yl)ethyl)-2,9-diethyl-1,2,3,4,4a,9a-hexahydro-pyrido[3,4-b]indole] | – |
| 54.9% | CN1CC[C@H]2c3cc(C4CCCN(C(=O)OCc5ccccc5)CCc5c4[nH]c4ccccc54)ccc3N(C)[C@H]2C1 (stereo partly drawn) [Example 1, 4a,9a-cis-6-(3-Benzyloxycarbonyl-1,2,4,5,6,7-hexahydro-3H-azonino[5,4-b]indole-7-yl)-2,9-dimethyl-1,2,3,4,4a,9a-hexahydro-pyrido[3,4-b]indole] | – |
| 80.8% | CCN1CCC2c3cc(C(O)c4c(CCN(Cc5ccccc5)Cc5ccccc5)c5ccccc5n4S(=O)(=O)c4ccc(C)cc4)ccc3N(CC)C2C1 (stereo not shown) [Example 34, 2,9-Diethyl-6-(3-(2-dibenzylaminoethyl)-1-tosyl-indole-2-yl)hydroxymethyl-1,2,3,4,4a,9a-hexahydro-pyrido[3,4-b]indole] | – |
